ChEMBL document CHEMBL4382286, “Nongenotoxic 3-Nitroimidazo[1,2-a]pyridines Are NTR1 Substrates That Display Potent in Vitro Antileishmanial Activity” (ACS Med Chem Lett, 2019)

Key:
[1] = Solubility of the compound in RPMI medium at 4 to 6 uM; assay type: physicochemical
Leishmania infantum = assay: Antileishmanial activity against Leishmania infantum axenic amastigotes after 48 hrs by steady-glo luciferase reporter gene assay; assay type: functional, organism-based
Leishmania donovani [2] = assay: Antileishmanial activity against wild type promastigote stage of Leishmania donovani MHOM/SD/62/1S-CL2D after 72 hrs by resazurin dye based fluorescence assay; assay type: functional, organism-based
Leishmania donovani [3] = assay: Selectivity ratio of IC50 for wild type promastigote stage of Leishmania donovani MHOM/SD/62/1S-CL2D to IC50 for NTR1 in promastigote stage of Leishmania donovani MHOM/SD/62/1S-CL2D
[4] = Electrochemical behavior of the compound assessed as redox potential corrected toward normal hydrogen electrode by cyclic voltammetry
[5] = Substrate activity at NTR1 in promastigote stage of Leishmania donovani MHOM/SD/62/1S-CL2D assessed as inhibition of parasite growth after 72 hrs by resazurin dye based assay
Leishmania donovani [6] = assay: Selectivity ratio of IC50 for NTR2 in promastigote stage of Leishmania donovani MHOM/SD/62/1S-CL2D to IC50 for NTR1 in promastigote stage of Leishmania donovani MHOM/SD/62/1S-CL2D
[7] = Cytotoxicity against human HepG2 cells after 72 hrs by MTT assay; assay type: cell-based
Leishmania donovani [8] = assay: Antileishmanial activity against intracellular amastigote stage of Leishmania donovani infected in human THP1 cells after 120 hrs by giemsa staining based microscopic analysis; assay type: functional, organism-based; details: THP-1, 120 h
[9] = Aqueous solubility of the compound at >12.5 uM; assay type: physicochemical; details: buffer
[10] = Substrate activity at NTR2 in promastigote stage of Leishmania donovani MHOM/SD/62/1S-CL2D assessed as inhibition of parasite growth after 72 hrs by resazurin dye based assay
[11] = tested on: Trypanosoma brucei brucei; assay: Antitrypanosomal activity against trypomastigote stage of Trypanosoma brucei brucei AnTat 1.9 assessed as decrease in parasite viability after 69 hrs by Alamar Blue assay; assay type: functional, organism-based; details: AnTat 1.9, 69 h
[12] = Selectivity index, ratio of CC50 for human HepG2 cells to IC50 for promastigote stage of Leishmania donovani MHOM/IN/00/DEVI; assay type: toxicity; details: read-out: Ratio CC50/IC50
Leishmania donovani [13] = assay: Antileishmanial activity against promastigote stage of Leishmania donovani MHOM/IN/00/DEVI after 72 hrs by MTT assay; assay type: functional, organism-based
[14] = Mutagenicity in Salmonella typhimurium TA97a at 62.5 to 625 uM preincubated for 1 hr with S9 mix followed by addition of molten top agar and measured 48 hrs post dark incubation by Ames test; assay type: toxicity, subcellular; details: salmonella enterica subsp. enterica serovar typhimurium, s9, 48 h
[15] = Mutagenicity in Salmonella typhimurium TA100 at 62.5 to 625 uM preincubated for 1 hr followed by addition of molten top agar and measured 48 hrs post dark incubation by Ames test; assay type: toxicity; details: salmonella enterica subsp. enterica serovar typhimurium
[16] = Mutagenicity in Salmonella typhimurium TA102 at 62.5 to 625 uM preincubated for 1 hr followed by addition of molten top agar and measured 48 hrs post dark incubation by Ames test; assay type: toxicity; details: salmonella enterica subsp. enterica serovar typhimurium
[17] = Mutagenicity in Salmonella typhimurium TA98 at 62.5 to 625 uM preincubated for 1 hr followed by addition of molten top agar and measured 48 hrs post dark incubation by Ames test; assay type: toxicity; details: salmonella enterica subsp. enterica serovar typhimurium
[18] = Mutagenicity in Salmonella typhimurium TA97a at 62.5 to 625 uM preincubated for 1 hr followed by addition of molten top agar and measured 48 hrs post dark incubation by Ames test; assay type: toxicity; details: salmonella enterica subsp. enterica serovar typhimurium
[19] = Mutagenicity in Salmonella typhimurium TA102 at 62.5 to 625 uM preincubated for 1 hr with S9 mix followed by addition of molten top agar and measured 48 hrs post dark incubation by Ames test; assay type: toxicity, subcellular; details: salmonella enterica subsp. enterica serovar typhimurium, s9, 48 h
[20] = Mutagenicity in Salmonella typhimurium TA100 at 62.5 to 625 uM preincubated for 1 hr with S9 mix followed by addition of molten top agar and measured 48 hrs post dark incubation by Ames test; assay type: toxicity, subcellular; details: salmonella enterica subsp. enterica serovar typhimurium, s9, 48 h
[21] = Mutagenicity in Salmonella typhimurium TA98 at 62.5 to 625 uM preincubated for 1 hr with S9 mix followed by addition of molten top agar and measured 48 hrs post dark incubation by Ames test; assay type: toxicity, subcellular; details: salmonella enterica subsp. enterica serovar typhimurium, s9, 48 h
[22] = Solubility of the compound in RPMI medium at >40 uM; assay type: physicochemical
[23] = Cytotoxicity against human THP1 cells after 72 hrs by MTT assay; assay type: cell-based; details: THP-1 cells
Leishmania major [24] = assay: Antileishmanial activity against promastigote stage of Leishmania major MHOM/IL/81/Friedlin after 72 hrs by MTT assay; assay type: functional, organism-based
Leishmania major [25] = assay: Antileishmanial activity against intracellular amastigote stage of Leishmania major infected in human THP1 cells after 120 hrs by giemsa staining based microscopic analysis; assay type: functional, organism-based; details: THP-1, 120 h
Plasmodium falciparum = assay: Antiplasmodial activity against chloroquine/proguanil/pyrimethamine-resistant synchronized stage of Plasmodium falciparum K1 after 72 hrs by SYBR green1 staining based spectrophotometric method; assay type: functional, organism-based; details: K1, 72 h

Row | solubility [1] | SMILES | CC50 at 72 h [7] | selectivity ratio [12] | IC50 (Leishmania donovani [13]) | further results
1 | Insoluble | O=[N+]([O-])c1c(CS(=O)(=O)c2ccccc2)nc2c(SCc3ccc(Cl)cc3)cc(Cl)cn12 |  |  |  | 
2 | Soluble | O=C(O)Cc1ccc(Sc2cc(Cl)cn3c([N+](=O)[O-])c(CS(=O)(=O)c4ccccc4)nc23)cc1 | > 62500 nM | > 1 | 65600 nM | 
3 | Insoluble | COc1cccc(Sc2cc(Cl)cn3c([N+](=O)[O-])c(CS(=O)(=O)c4ccccc4)nc23)c1 | > 15600 nM | > 6.8 | 2300 nM | 
4 | Insoluble | COc1ccc(CSc2cc(Cl)cn3c([N+](=O)[O-])c(CS(=O)(=O)c4ccccc4)nc23)cc1 |  |  |  | 
5 | Soluble | COc1ccc(Sc2cc(Cl)cn3c([N+](=O)[O-])c(CS(=O)(=O)c4ccccc4)nc23)cc1 | > 62500 nM | > 41.7 | 1500 nM | 
6 | Insoluble | O=[N+]([O-])c1c(CS(=O)(=O)c2ccccc2)nc2c(SCc3ccc(Br)cc3)cc(Cl)cn12 |  |  |  | 

Continued, compound first:

Row | SMILES | solubility [1] | CC50 at 72 h [7] | selectivity ratio [12] | IC50 (Leishmania donovani [13]) | further results
7 | O=[N+]([O-])c1c(CS(=O)(=O)c2ccccc2)nc2c(S(=O)(=O)c3ccc(Cl)cc3)cc(Cl)cn12 |  | > 12500 nM |  |  | IC50 (Leishmania infantum): 3700 nM; IC50 (Leishmania donovani [2]): 600 nM; Ratio IC50 (Leishmania donovani [3]): 8; Activity [4]: -0.59 V; IC50 [5]: 80 nM; Ratio IC50 (Leishmania donovani [6]): 8; IC50 (Leishmania donovani [8]): 1300 nM; solubility [9]: Insoluble; IC50 [10]: 700 nM; IC50 [11]: 1000 nM
8 | O=[N+]([O-])c1c(CS(=O)(=O)c2ccccc2)nc2c(Sc3ccccc3C(F)(F)F)cc(Cl)cn12 |  | > 4100 nM | > 2.7 | 1500 nM | 
9 | O=[N+]([O-])c1c(CS(=O)(=O)c2ccccc2)nc2c(Sc3ccccc3Cl)cc(Cl)cn12 |  | > 5000 nM | > 3.6 | 1400 nM | 
10 | Cc1cccc(Sc2cc(Cl)cn3c([N+](=O)[O-])c(CS(=O)(=O)c4ccccc4)nc23)c1 |  | > 5600 nM | > 4 | 1400 nM | 
11 | O=[N+]([O-])c1c(CS(=O)(=O)c2ccccc2)nc2c([S+]([O-])c3ccc(Cl)cc3)cc(Cl)cn12 (centres undefined) |  | > 12500 nM |  |  | Activity [14]: Non-Toxic; Activity [15]: Non-Toxic; IC50 (Leishmania infantum): 1600 nM; Activity [16]: Non-Toxic; Activity [17]: Non-Toxic; Activity [18]: Non-Toxic; Activity [4]: -0.61 V; Activity [19]: Non-Toxic; Activity [20]: Non-Toxic; IC50 (Leishmania donovani [8]): 1300 nM; solubility [9]: Insoluble; Activity [21]: Non-Toxic; IC50 [11]: 600 nM
12 | CCCCCCCCCCCCCCCCOP(=O)([O-])OCC[N+](C)(C)C [MILTEFOSINE] |  |  |  |  | solubility [22]: Insoluble; CC50 at 72 h [23]: > 40000 nM
13 | C[C@@H]1[C@H](O)[C@@H](C)/C=C/C=C/C=C/C=C/C=C/C=C/C=C/[C@H](O[C@@H]2O[C@H](C)[C@@H](O)[C@H](N)[C@@H]2O)C[C@@H]2O[C@](O)(C[C@@H](O)C[C@@H](O)[C@H](O)CC[C@@H](O)C[C@@H](O)CC(=O)O[C@H]1C)C[C@H](O)[C@H]2C(=O)O [AMPHOTERICIN B] |  |  |  |  | IC50 (Leishmania major [24]): 600 nM; IC50 (Leishmania major [25]): 200 nM
14 | N=C(N)c1ccc(OCCCCCOc2ccc(C(=N)N)cc2)cc1 [PENTAMIDINE] |  |  | 0.4 |  | 
15 | O=C1C(O)=C([C@H]2CC[C@H](c3ccc(Cl)cc3)CC2)C(=O)c2ccccc21 [ATOVAQUONE] |  |  |  |  | IC50 (Plasmodium falciparum): 1 nM
16 | O=[N+]([O-])c1c(CS(=O)(=O)c2ccccc2)nc2c(Sc3cc(Cl)ccc3Cl)cc(Cl)cn12 |  | > 3900 nM | > 1.5 | 1300 nM | 
17 | O=[N+]([O-])c1c(CS(=O)(=O)c2ccccc2)nc2c(Sc3ccc(C(F)(F)F)cc3)cc(Cl)cn12 |  | > 3900 nM | > 1.5 | 2100 nM | 
18 | Cc1ccc(Sc2cc(Cl)cn3c([N+](=O)[O-])c(CS(=O)(=O)c4ccccc4)nc23)cc1 |  | > 3900 nM | > 2.2 | 1400 nM | 
